Measurements taken from patent US6479476B1, “19-nor steroids substituted in position 11β, preparation method and intermediates, application as medicines and pharmaceutical compositions containing them” (Aventis Pharma S.A., priority 1997, dated 2002).
Where two headings read alike, the source gives them in different places.

What was measured:
[1] = test system: human mammary cells MCF-7; assay: Effect on the proliferation of mammary cells (MCF-7, DNA quantitation after 7 days); format: cell-based; parameters: key: The molecules inducing a cellular growth identical to that observed with the solvent alone are classed “inactivated”; Inhibitor: those inducing cellular growth lower than that observed with the solvent are classed “inhibitor”; *Mixed: slight agonist activity in very weak concentrations and inhibitory activity in stronger concentrations; conditions: MCF-7 cells in steroid-free medium, 7 days of culture, DNA analysis; compared with oestradiol at 10^-10M = 100% agonist activity
Excerpt: 1—Effect on the Proliferation of Mammary Cells The proliferative activity of the molecules is studied comparatively with that of oestradiol on the human mammary cells MCF-7 in culture. To highlight the agonist effect of oestradiol and/or the molecules tested, the culture medium for the maintenance of the cells (rich in growth factors and in steroids) is replaced by a more impoverished medium, amongst others lacking in steroids (DMEM supplemented by 5% of serum with steroid removed and without phenol red). The cells undergo this deprivation two days before the start of the trial. After 7 days of culture in the presence of the products to be studied, the cellular proliferation is evaluated by quantitive analysis of the DNA. In each trial, the effect of the oestradiol at 10^−10M (cellular growth in the presence of oestradiol less cellular growth in the presence of solvent) determines the agonist activity at 100%. The activity of the molecules is evaluated in comparison to this internal control. The molecules inducing a cellular growth identical to that observed with the solvent alone are classed “inactivated”, those inducing cellular growth lower than that observed with the solvent are classed “inhibitor”.

[2] = target: T1, recombinant human oestrogen receptor (Homo sapiens, UniProt P03372); assay: Affinity for the human oestrogen receptor (REH), displacement of tritiated oestradiol, relative affinity ARL; format: binding
T1 construct: comprising the coding region for the human oestrogen receptor of wild type; made in house; host or cells: SF9 insect cells (ATCC CRL1711), baculovirus
T1 sequence (P03372 1-595): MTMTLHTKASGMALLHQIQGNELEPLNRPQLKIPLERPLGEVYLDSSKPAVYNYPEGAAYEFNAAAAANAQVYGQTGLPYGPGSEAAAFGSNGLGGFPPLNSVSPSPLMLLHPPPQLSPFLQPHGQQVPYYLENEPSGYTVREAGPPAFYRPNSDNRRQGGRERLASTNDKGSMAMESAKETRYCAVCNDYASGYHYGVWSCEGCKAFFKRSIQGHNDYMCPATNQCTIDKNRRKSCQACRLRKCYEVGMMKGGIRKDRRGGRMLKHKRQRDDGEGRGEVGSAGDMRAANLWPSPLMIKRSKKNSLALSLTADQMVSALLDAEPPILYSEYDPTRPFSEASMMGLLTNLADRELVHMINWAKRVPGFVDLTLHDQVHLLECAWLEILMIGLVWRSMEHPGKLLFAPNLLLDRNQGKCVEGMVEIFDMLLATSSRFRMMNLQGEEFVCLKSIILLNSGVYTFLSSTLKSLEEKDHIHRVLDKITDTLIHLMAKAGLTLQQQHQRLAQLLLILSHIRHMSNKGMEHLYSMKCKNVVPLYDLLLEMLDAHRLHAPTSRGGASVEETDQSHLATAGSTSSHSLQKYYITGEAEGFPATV
Excerpt: 2—Affinity of the Human Oestrogen Receptor (REH)
A cytosolic extract of SF9 cells containing the recombinant human oestrogen receptor is obtained by over-expression in an insect-Baculo-viros system of cells, according to the general methodology described by N. R. WEBB et al. (Journal of Methods in cell and Molecular Biology, (1990) vol 2 n°4, 173-188) and whose application is described for the expression of human hormonal receptors, for example the human glucocorticoid receptor (G.SRINIVASAN et al. Molecular Endocrinology (1990) vol 4 n°2 209-216).
The BaculoGold Transfection Kit (PharMingen, reference 21000K) is used to generate the recombinant baculovirus containing the fragment of DNAc described in the expression vector HEGO by L. TORA et al. (The EMBO Journal (1989) vol 8 n°7 1981-1986) comprising the coding region for the human oestrogen receptor of wild type with glycine in position 400.
The recombinant virus obtained in this way is used to express the […] receptor in the cells of insects SF9 (ATCC CRL1711), according to the known methodology previously cited.
2×10^7 SF9 cells are cultivated in a 175 cm^2 “Falcon” flask in TNM-FH “SIGMA” medium supplemented with 10% of foetal calf serum (FCS) and 50 micrograms/ml of gentamycine. After infection then incubation at 27° C. for 40 to 42 hours, the cells are lysed in 1 ml of lyse buffer (Tris 20 mM-HCl pH8, EDTA 0.5 mM, DTT 2mM, Glycerol 20%, KCl 400 mM) by a freezing-defrosting cycle that is repeated twice more. The supernatant, containing the recombinant human oestrogen receptor is preserved in liquid nitrogen in 0.5 ml amounts.
The supernatant is incubated at 0° C. for 24 hours with a consistent concentration (T) of oestradiol tritiated in the presence of growing concentrations either of cold oestradiol (0-1000×10^−9M), or of cold product to be tested (0-25000×10^−9M). The concentration of linked triated oestradiol (B) is then measured in each incubation by the dextran carbon adsorption technique.
3—Calculation of the Affinity Relative to Linking (ARL)
The 2 following curves are plotted: the percentage of 100×B/BO linked tritiated hormone in comparison to the logarithm of the concentration of cold reference hormone or in comparison to the logarithm of the concentration of cold product tested.
The soundness of the following equation is determined:
B0=Concentration of the linked tritiated hormone in the absence of any cold product,
B=Concentration of the linked tritiated hormone in the presence of an X concentration of cold product,
Bmin=Concentration of linked tritiated hormone for an incubation of this tritiated hormone in concentration (T) in the presence of a large excess of cold reference hormone (1000×10^−9) for human receptor.
The intersections of the right angle I50 and the curves, make it possible to evaluate the concentration of cold reference hormone (CH) and the tested cold product (CX) which inhibit 50% of the bond of the tritiated hormone on the receptor.
The relative affinity of the link (ARL) of the tested product is determined by the equation: […]

[3] = incubation at 0° C. for 24 hours with tritiated oestradiol, ARL=100(CH)/(CX), oestradiol = 100

SMILES | Relative affinity of the link (ARL), EH oestradiol = 100, 24 H [2, 3] | ACTIVITY (proliferative activity on MCF-7 cells) [1] | Relative affinity of the link (ARL), EH oestradiol = 100, 24 H [2]
C[C@]12C[C@H](c3ccc(CCCN4CCCC4)cc3)[C@@H]3c4ccc(O)cc4CC[C@H]3[C@@H]1CC[C@@H]2O [Example 7, 11β-[4-[3-(1-pyrrolidinyl)propyl]phenyl]-estra-1,3,5(10)-trien-3,17β-diol] | – | Inhibitor | 59
C[C@]12C[C@H](c3ccc(CCCN4CCCCC4)cc3)[C@@H]3c4ccc(O)c(Cl)c4CC[C@H]3[C@@H]1CC[C@@H]2O [Example 11, 4-chloro-11β-[4-[3-(1-piperidinyl)propyl]phenyl]-estra-1,3,5(10) -trien-3,17β-diol] | – | Mixed | 14
CCN(CC)CCCc1ccc([C@H]2C[C@]3(C)[C@@H](O)CC[C@H]3[C@@H]3CCc4c(ccc(O)c4Cl)[C@H]32)cc1 [Example 12, 4-chloro-11β-[4-[3-(1-diethylamino)propyl]phenyl]-estra-1,3,5(10)-trien-3,17β-diol] | 28 | Inhibitor | –
C[C@]12CC[C@@H]3c4ccc(O)cc4CC[C@H]3[C@@H]1CC[C@@H]2O [Oestradiol, reference compound] | – | Agonist | –

Now from value to molecule, other results behind:

Relative affinity of the link (ARL), EH oestradiol = 100, 24 H [2, 3] | SMILES | ACTIVITY (proliferative activity on MCF-7 cells) [1] | Relative affinity of the link (ARL), EH oestradiol = 100, 24 H [2]
28 | C[C@]12C[C@H](c3ccc(CCCN4CCCCC4)cc3)[C@@H]3c4ccc(O)cc4CC[C@H]3[C@@H]1CC[C@@H]2O [Example 9] | Inhibitor | –
42 | CC1(O)CCC2C3CCc4cc(O)ccc4C3C(c3ccc(CCCN4CCCCC4)cc3)CC21C (stereo not drawn) [Example 13, 17α-methyl-11β-[4-[3-(1-piperidininyl)propyl]phenyl]-estra-1,3,5(10)-trien-3,17β-diol] | Inhibitor | –
